The source of these data is patent US7514443B2, “Substituted pyrazolo[1,5-a]pyrimidines as inhibitors of metabotropic glutamate receptors” (Hoffmann-La Roche Inc., priority 2003, dated 2009).

SMILES strings stand for the structures.

In the case of `FC(F)(F)c1cccc(-c2cc(C(F)(F)F)n3ncc(-c4ccncc4)c3n2)c1` [Example 4.16, 5-(3-Trifluoromethyl-phenyl)-3-pyridin-4-yl-7-trifluoromethyl-pyrazolo[1,5-a]pyrimidine], the melting point came out at 241 °C.
Compound `FC(F)(F)c1cccc(-c2cc(C(F)(F)F)n3cnc(-c4cccnc4)c3n2)c1` [Example 8.5, 8-Pyridin-3-yl-4-trifluoromethyl-2-(3-trifluoromethyl-phenyl)-imidazo[1,5-a]pyrimidine] gave a melting point of 194 °C.
`FC(F)(F)COc1ccc(-c2cc(C(F)(F)F)n3ncc(-c4cccnc4)c3n2)cc1C(F)(F)F` [Example 4.42, 5-(4-Trifluoroethoxy-3-trifluoromethyl-phenyl)-3-pyridin-3-yl-7-trifluoromethyl-pyrazolo[1,5-a]pyrimidine] displayed a melting point of 181 °C.
As for `CCOc1ccc(-c2cc(C(F)(F)F)n3ncc(-c4ccncc4)c3n2)cc1C(F)(F)F` [Example 4.41, 5-(4-Ethoxy-3-trifluoromethyl-phenyl)-3-pyridin-4-yl-7-trifluoromethyl-pyrazolo[1,5-a]pyrimidine], the melting point came out at 233 °C.
Under `FC(F)(F)c1cccc(-c2cc(C(F)(F)F)n3cnc(-c4ccncc4)c3n2)c1` [Example 8.13, 8-Pyridin-4-yl-4-trifluoromethyl-2-(3-trifluoromethyl-phenyl)-imidazo[1,5-a]pyrimidine] stands 258 °C; under `N#Cc1ncn2c(C(F)(F)F)cc(-c3ccccc3)nc12` [Example 5.1, 2-Phenyl-4-trifluoromethyl-imidazo[1,5-a]pyrimidine-8-carbonitrile], 202 °C; under `Cc1cc(-c2cnn3c(C(F)(F)F)cc(-c4ccc(Cl)c(Cl)c4)nc23)cc(C)n1` [Example 4.22, 5-(3,4-Dichloro-phenyl)-3-(2,6-dimethyl-pyridin-4-yl)-7-trifluoromethyl-pyrazolo[1,5-a]pyrimidine], 281 °C.
On to `FC(F)(F)c1cc(-c2ccc(Cl)c(Cl)c2)nc2c(-c3ccncc3)cnn12` [Example 4.10, 5-(3,4-Dichloro-phenyl)-3-pyridin-4-yl-7-trifluoromethyl-pyrazolo[1,5-a]pyrimidine], for which the melting point is 260 °C.
Under `N#Cc1cnn2c(C(F)(F)F)cc(-c3ccc(Cl)c(Cl)c3)nc12` [Example 1.16, 5-(3,4-Dichloro-phenyl)-7-trifluoromethyl-pyrazolo[1,5-a]pyrimidine-3-carbonitrile] stands 206 °C.
Under `Cc1cc(-c2ncn3c(C(F)(F)F)cc(-c4cccc(C(F)(F)F)c4)nc23)ccn1` [Example 8.25, 8-(2-Methyl-pyridin-4-yl)-4-trifluoromethyl-2-(3-trifluoromethyl-phenyl)-imidazo[1,5-a]pyrimidine] stands 234 °C; under `Cc1cc(-c2cnn3c(C(F)(F)F)cc(-c4ccc(C(F)(F)F)c(OCC(F)(F)F)c4)nc23)cc(C)n1` [Example 4.51, 3-(2,6-Dimethyl-pyridin-4-yl)-5-[3-(2,2,2-trifluoro-ethoxy)-4-trifluoromethyl-phenyl]-7-trifluoromethyl-pyrazolo[1,5-a]pyrimidine], 245 °C; under `Cc1cc(-c2cnn3c(C(F)(F)F)cc(-c4cccc(C(F)(F)F)c4)nc23)ccn1` [Example 4.34, 5-(3-Trifluoromethyl-phenyl)-3-(2-methyl-pyridin-4-yl)-7-trifluoromethyl-pyrazolo[1,5-a]pyrimidine], 232 °C.
Under `FC(F)(F)COc1cc(-c2cc(C(F)(F)F)n3cnc(-c4ccncc4)c3n2)ccc1C(F)(F)F` [Example 8.32, 8-Pyridin-4-yl-2-[3-(2,2,2-trifluoro-ethoxy)-4-trifluoromethyl-phenyl]-4-trifluoromethyl-imidazo[1,5-a]pyrimidine] stands 233 °C; under `N#Cc1cnn2c(C(F)(F)F)cc(-c3cccc(C(F)(F)F)c3)nc12` [Example 1.6, 5-(3-Trifluoromethyl-phenyl)-7-trifluoromethyl-pyrazolo[1,5-a]pyrimidine-3-carbonitrile], 192 °C.
